According to patent US12589099B2 (priority 2021, dated 2026):

Assays:
Format in all cases: in vivo, male Wistar rats
[1] = tested on: DCX+ neuroblasts in the dentate gyrus of the hippocampus; assay: Doublecortin (DCX) IHC, neuroblasts in the dentate gyrus 35 days post-TBI; conditions: 4.5 mg/kg IN twice daily; 35 days following TBI
Source text: (§1) Young adult (2-3 months) male Wistar rats were subjected to a moderate traumatic brain injury (TBI) induced by controlled cortical impact (CCI). Animal models of TBI including the CCI model and functional tests have been described in detail in peer reviewed publications (Xiong et al., 2013, Nat Rev Neurosci.; Zhang et al., 2016, J Neurosurg.; Zhang et al., 2016, Neurochem Int.; Zhang et al., 2021, J Neurotrauma). Injury consisted of a single impact at 4.0 m/sec, 2.5 mm deformation to the left parietal cortex. In addition, a group of animals was left healthy/not injured to serve as a healthy control.
(§2) The substance used in this study was ALPHA-1062 at 4.5 mg/kg. As control treatment (vehicle) purified water was administered intranasally (IN). […]
(§3) Histological assessment was performed including quantitative image analysis protocols; followed by statistical analysis of the data. […]
(§4) For cell counting and quantitation NeuN+ cells were examined in the ipsilateral cortex, DG, CA1, and CA3 regions of the ipsilateral hippocampus. […] The number of BrdU+ cells (red-fluorophore) and NeuN (green-fluorophore)/BrdU-colabeled cells (yellow after merge) were counted. […] The immune-positive cells were determined and divided by the measured areas and presented as numbers per square mm. […]

[2] = tested on: NeuN positive cells in DG, CA1, CA3 and cortex; assay: NeuN IHC, neuronal cell loss 35 days post-TBI; conditions: 4.5 mg/kg IN twice daily; 35 days following TBI
Source text: as §1, §2, §3, §4

[3] = tested on: moderate traumatic brain injury (TBI) induced by controlled cortical impact (CCI); assay: Modified neurological severity score (mNSS) after TBI
Source text: as §1
(§5) The animals were divided into 3 groups: • 1) TBI+Vehicle (purified water, n=10) • 2) TBI+ALPHA-1062 (4.5 mg/kg) (n=10) • 3) Healthy/not injured and not treated (Sham surgery) (n=10)
(§6) The substance used in this study was ALPHA-1062 at 4.5 mg/kg. As control treatment (vehicle) purified water was administered intranasally (IN). The ALPHA-1062 and the control treatment were initiated 2 hours after injury and continued twice daily (with a 6-hour interval) for 35 consecutive days.
In addition, neurological functional tests were performed by conducting footfault tests and observations to determine the modified neurological severity score (mNSS) at 1, 7, 14, 21, 28, 35 days after TBI (see Table 1). The mNSS is a composite score assessing motor, sensory, balance, and reflex functions. […]

[4] = Body weight over the 35-day TBI study (overt toxicity); conditions: 4.5 mg/kg IN twice daily
Source text: as §1, §5, §6

[5] = tested on: moderate traumatic brain injury (TBI) induced by controlled cortical impact (CCI); assay: Lesion volume and hippocampal structure (H&E) 35 days post-TBI; conditions: 4.5 mg/kg IN twice daily, 35 days after TBI
Source text: as §1, §6
Histological assessment was performed including quantitative image analysis protocols; followed by statistical analysis of the data. Histology: All rats were sacrificed after the last Morris water maze (MWM) test 35 days after TBI for the following histological analyses: lesion volume (H&E), neuronal cell loss in injured cortex and hippocampus (NeuN), doublecortin (DCX, neuroblasts), NeuN/BrdU (newborn neurons), pathological p-Tau (AT8) and total Tau IHC. […]

In the case of COc1ccc2c3c1O[C@H]1C[C@@H](OC(=O)c4ccccc4)C=C[C@@]31CCN(C)C2 [ALPHA-1062, (4aS,6R,8aS)-5,6,9,10,11,12-hexahydro-3-methoxy-11-methyl-4aH-[1]benzofuro[3a,3,2-ef][2]benzazepin-6-ol benzoate], the “DCX positive cells in dentate gyrus compared to sham surgery cohort” value [1] is reported as “comparable numbers”, the “DCX positive cells in dentate gyrus compared to vehicle” value [1] is reported as “higher number of DCX positive cells” and the “neuron numbers (NeuN) in DG, CA1, CA3 and cortex, compared to vehicle” value [2] is reported as “reduced loss of neurons”. The “neuronal cell numbers (NeuN) compared to sham surgery animals” value [2] was “did not differ significantly”, the mNSS performance ([3]; 4.5 mg/kg IN twice daily, from day 14 (D14) onwards, vs vehicle) was “statistically significantly better” and the “Modified Neurological Severity Score (mNSS), performance over VEHICLE” value ([3]; rats after TBI, compared to vehicle treatment) was “superior”. For the same compound, the overt toxicity ([4]; 35 days, compared to vehicle animals) was “did not show overt toxicity”, the “body weight compared to vehicle treated or untreated animals” value ([4]; each time point D0-D35, P>0.05) was “no significant alterations in body weight” and the “body weight compared to day zero (D0), days 29-35” value ([4]; within group) was “significant body weight gain”. The “body weight compared to day zero (D0), days 1-7” value ([4]; within group, p<0.05) was “significant body weight loss”, the “hippocampal structure on the injured side of the brain” value [5] was “preservation of hippocampal structure” and the lesion volume ([5]; vs vehicle) was “significant (p<0.05) reduction of lesion volume”.
